Tested on: BRM-dependent transcription (BRG1 mutant lung cancer cell line A549)
Assay: BRM-dependent transcription, MMTV luciferase reporter in BRG1 mutant A549 cells
Type: cell-based
Details: Table 11; for IC50: A549-MMTV luciferase reporter, dexamethasone induced, 6 hours; for Ratio (MDA-MMTV IC50 (μM) divided by A549-MMTV IC50 (μM)): MMTV luciferase reporter cell lines, selectivity BRG1/BRM
Procedure, shortened: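 A549 (BRG1-mutant) cells engineered with a BRM-dependent MMTV luciferase reporter; transcription induced with dexamethasone in presence of compound at various concentrations. Luminescence read 6 h after stimulation.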

Row | Compound | IC50 (Homo sapiens, A549, 6 h) | Ratio (MDA-MMTV IC50 (μM) divided by A549-MMTV IC50 (μM)) | IC50
1 | [2H]C([2H])([2H])Oc1ccc(-c2ccc3cnc(CNC(=O)c4cc(Br)c5c(c4)S(=O)(=O)[C@@H](F)COC5)cc3n2)nc1C1CC1 [Compound 522] | 21.4 nM | 29.68 | 
2 | O=C(NCc1cc2nc(-n3cc(F)c(OC(F)F)n3)ccc2cn1)c1cc(F)c2c(c1)S(=O)(=O)[C@@H](F)COC2 [Compound 473] | 17.1 nM | 22.61 | 
3 | O=C(NCc1cc2nc(-c3ccnc(C4CC4(F)F)n3)ccc2cn1)c1cc(Cl)c2c(c1)S(=O)(=O)[C@@H](F)COC2 (stereo partly shown) [Compound 420] | 25.7 nM | 24.69 | 
4 | Cc1cc(C(=O)NCc2cc3nc(-c4ccc(C(F)F)c(C5CC5)n4)ccc3cn2)cc2c1OCC[C@H](F)S2(=O)=O [Compound 385] | 20.9 nM | 22.49 | 
5 | O=C(NCc1cc2nc(N3CCOc4cc(N5CC(F)(F)C5)cnc43)ccc2cn1)c1cc(F)c2c(c1)S(=O)(=O)[C@@H](F)CCO2 [Compound 353] | 15.5 nM | 21.63 | 
6 | [2H]C1([2H])OC([2H])([2H])[C@H](F)S(=O)(=O)c2cc(C(=O)NCc3cc4nc(-c5cccc(OC(F)F)n5)ccc4cn3)cc(F)c21 [Compound 379] | 20 nM | 22.55 | 
7 | C[C@@H](CF)c1ccc2c(n1)N(c1ccc3cnc(CNC(=O)c4cc(F)c5c(c4)S(=O)(=O)[C@@H](F)CCO5)cc3n1)CCO2 [Compound 351] | 20 nM | 25.07 | 
8 | O=C(NCc1cc2nc(-c3cccc(OC(F)(F)Cl)n3)ccc2cn1)c1cc(Cl)c2c(c1)S(=O)(=O)[C@@H](F)CCO2 [Compound 362] | 22.2 nM | 31.16 | 
9 | COc1nc(C(F)(F)F)ccc1-c1ccc2cnc(CNC(=O)c3cc(Cl)c4c(c3)S(=O)(=O)[C@@H](F)CCO4)cc2n1 [Compound 348] | 13.9 nM | 30.79 | 
10 | O=C(NCc1cc2nc(-c3cccc(C4CC4)n3)ccc2cn1)c1cc(Cl)c2c(c1)S(=O)(=O)[C@@H](F)CCO2 [Compound 337] | 20.1 nM | 30.81 | 
11 | CCOc1nc(C(C)(F)F)ccc1-c1ccc2cnc(CNC(=O)c3cc(F)c4c(c3)S(=O)(=O)[C@@H](F)COC4)cc2n1 [Compound 468] |  | 25.28 | 4.2 nM
12 | O=C(NCc1cc2nc(N3CCOc4ccc(C(F)F)nc43)ccc2cn1)c1cc(Br)c2c(c1)S(=O)(=O)[C@@H](F)CCO2 [Compound 435] | 23 nM | 25.82 | 
13 | O=C(NCc1cc2nc(-c3cccc(C4CC4)n3)ccc2cn1)c1cc(C(F)F)c2c(c1)S(=O)(=O)[C@@H](F)COC2 [Compound 429] | 16.9 nM | 32.94 | 
14 | COc1nc(C(F)F)ccc1-c1ccc2cnc(CNC(=O)c3cc(Br)c4c(c3)S(=O)(=O)[C@@H](F)COC4)cc2n1 [Compound 410] | 14.3 nM | 27.39 | 
15 | [2H]C([2H])([2H])C([2H])([2H])Oc1ccc(-c2ccc3cnc(CNC(=O)c4cc(C(F)F)c5c(c4)S(=O)(=O)[C@@H](F)COC5)cc3n2)nc1C1CC1(F)F (stereo partly shown) [Compound 440] | 16.1 nM | 53.01 | 

Second part, the compound after the results:

Row | IC50 (Homo sapiens, A549, 6 h) | Ratio (MDA-MMTV IC50 (μM) divided by A549-MMTV IC50 (μM)) | IC50 | Compound
16 | 3 nM | 27.74 |  | [2H]C([2H])([2H])c1cc(C(=O)NCc2cc3nc(-c4cccc(N5C[C@@H](C)O[C@@H](C)C5)n4)ccc3cn2)cc2c1OCC[C@H](F)S2(=O)=O [Compound 433]
17 | 8.1 nM | 40.24 |  | CCOc1nc(C(F)F)ccc1-c1ccc2cnc(CNC(=O)c3cc(C(F)F)c4c(c3)S(=O)(=O)[C@@H](F)COC4)cc2n1 [Compound 430]
18 | 12 nM | 49.42 |  | [2H]C([2H])([2H])C([2H])([2H])Oc1nc([C@H](F)CF)ccc1-c1ccc2cnc(CNC(=O)c3cc(Br)c4c(c3)S(=O)(=O)[C@@H](F)COC4)cc2n1 [Compound 485]
19 | 13.3 nM | 27.20 |  | COCCOc1cnc2c(c1)CCCN2c1ccc2cnc(CNC(=O)c3cc(C(F)F)c4c(c3)S(=O)(=O)[C@@H](F)COC4)cc2n1 [Compound 439]
20 | 7.6 nM | 35.99 |  | O=C(NCc1cc2nc(-c3ccc(OC(F)F)c(C4CC4)n3)ccc2cn1)c1cc(C(F)F)c2c(c1)S(=O)(=O)[C@@H](F)COC2 [Compound 415]
21 | 13.8 nM | 22.11 |  | O=C(NCc1cc2nc(-c3ccc(OC(F)F)c([C@H]4CC4(F)F)n3)ccc2cn1)c1cc(Cl)c2c(c1)S(=O)(=O)[C@@H](F)COC2 [Compound 447]
22 | 7.3 nM | 26.43 |  | COc1nc(OC(F)F)ccc1-c1ccc2cnc(CNC(=O)c3cc(F)c4c(c3)S(=O)(=O)[C@@H](F)CCO4)cc2n1 [Compound 388]
23 | 6.4 nM | 29.60 |  | [2H]C([2H])([2H])Oc1nc([C@H](C)F)ccc1-c1ccc2cnc(CNC(=O)c3cc(F)c4c(c3)S(=O)(=O)[C@@H](F)CCO4)cc2n1 [Compound 384]
24 | 5.6 nM | 25.86 |  | O=C(NCc1cc2nc(-c3ccc(OC(F)F)c([C@@H]4CC4(F)F)n3)ccc2cn1)c1cc(C(F)F)c2c(c1)S(=O)(=O)[C@@H](F)COC2 [Compound 451]
25 | 11.1 nM | 24.93 |  | O=C(NCc1cc2nc(-c3ccnc(N4CCC4)n3)ccc2cn1)c1cc(F)c2c(c1)S(=O)(=O)[C@@H](F)CCO2 [Compound 343]
26 | 5.3 nM | 29.48 |  | Cc1cc(C(=O)NCc2cc3nc(-c4ccc(C(F)F)c(C5CC5)n4)ccc3cn2)cc2c1COC[C@H](F)S2(=O)=O [Compound 397]
27 | 10.4 nM | 45.81 |  | [2H]C([2H])([2H])Oc1ccc(-c2ccc3cnc(CNC(=O)c4cc(C(F)F)c5c(c4)S(=O)(=O)[C@@H](F)COC5)cc3n2)nc1C1CC1(F)F (stereo partly shown) [Compound 455]
28 | 7.6 nM | 21.84 |  | C[C@@H]1CN(c2cccc(-c3ccc4cnc(CNC(=O)c5cc(C#N)c6c(c5)S(=O)(=O)[C@@H](F)CCO6)cc4n3)n2)C[C@H](C)O1 [Compound 372]
29 | 5.9 nM | 27.42 |  | O=C(NCc1cc2nc(-c3ccc([C@@H](F)CF)c(C4CC4)n3)ccc2cn1)c1cc(F)c2c(c1)S(=O)(=O)[C@@H](F)CCO2 [Compound 406]
30 | 8.7 nM | 41.19 |  | COc1ccc(-c2ccc3cnc(CNC(=O)c4cc(C(F)F)c5c(c4)S(=O)(=O)[C@@H](F)COC5)cc3n2)nc1C1CC1(F)F (stereo partly shown) [Compound 434]
31 | 7.4 nM | 52.71 |  | CCOc1nccc2c1OCCN2c1ccc2cnc(CNC(=O)c3cc(Cl)c4c(c3)S(=O)(=O)[C@@H](F)COC4)cc2n1 [Compound 477]
32 | 12.9 nM | 24.67 |  | O=C(NCc1cc2nc(-c3ccc(C(F)F)c(C4CC4(F)F)n3)ccc2cn1)c1cc(F)c2c(c1)S(=O)(=O)[C@@H](F)CCO2 (stereo partly shown) [Compound 399]

Source: patent publication US12139487B2, “Compounds and uses thereof” (Foghorn Therapeutics Inc., priority 2022, dated 2024)
